According to PubChem BioAssay (NCI):
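Growth conditions: 96-well plates. Treatment: test compound, 48 hours, 5 concentrations. Analysis: linear interpolation between bracketing concentrations; unreached endpoints set to highest concentration. At the GI50, growth is halved. At the TGI there is no net growth.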

Legend:
Assay in all cases: NCI tumour cell line growth inhibition, 48 h
[1] = tested on: K-562 leukemia
[2] = tested on: T-47D breast
[3] = tested on: HCT-15 colon
[4] = tested on: ACHN renal
[5] = tested on: SF-539 CNS
[6] = tested on: UO-31 renal
[7] = tested on: SW-620 colon
[8] = tested on: SK-MEL-2 melanoma
[9] = tested on: OVCAR-5 ovarian
[10] = tested on: U251 CNS
[11] = tested on: CAKI-1 renal
[12] = tested on: SNB-75 CNS
[13] = tested on: SR leukemia
[14] = tested on: SF-268 CNS
[15] = tested on: NCI/ADR-RES ovarian
[16] = tested on: HS 578T breast
[17] = tested on: RPMI-8226 leukemia
[18] = tested on: HCT-116 colon
[19] = tested on: OVCAR-3 ovarian
[20] = tested on: EKVX NSCLC
[21] = tested on: SK-OV-3 ovarian
[22] = tested on: SF-295 CNS
[23] = tested on: HCC-2998 colon
[24] = tested on: MOLT-4 leukemia
[25] = tested on: SN12C renal
[26] = tested on: M14 melanoma
[27] = tested on: MALME-3M melanoma
[28] = tested on: HT29 colon
[29] = tested on: 786-0 renal
[30] = tested on: TK-10 renal
[31] = tested on: NCI-H522 lung
[32] = tested on: NCI-H226 lung
[33] = tested on: SK-MEL-28 melanoma
[34] = tested on: MCF7 breast
[35] = tested on: UACC-62 melanoma
[36] = tested on: OVCAR-4 ovarian
[37] = tested on: A549 NSCLC
[38] = tested on: COLO 205 colon
[39] = tested on: NCI-H23 lung
[40] = tested on: UACC-257 melanoma
[41] = tested on: LOX IMVI melanoma
[42] = tested on: OVCAR-8 ovarian
[43] = tested on: SNB-19 CNS
[44] = tested on: MDA-MB-231 breast
[45] = tested on: DU-145 prostate
[46] = tested on: HOP-62 NSCLC
[47] = tested on: A498 renal
[48] = tested on: SK-MEL-5 melanoma
[49] = tested on: CCRF-CEM leukemia
[50] = tested on: MDA-MB-435
[51] = tested on: BT-549 breast
[52] = tested on: HL-60(TB) leukemia
[53] = tested on: IGROV1 ovarian
[54] = tested on: NCI-H460 lung
[55] = tested on: KM12 colon
[56] = tested on: HOP-92 NSCLC

CCNC(=O)N1CCc2c(Cl)c3c(c(OC)c2[C@@H]1[C@H]1OCc2c1ccc(OC)c2OC)OCCO3
GI50 [1]: 3.48 µM
TGI [1]: > 100 µM
GI50 [2]: 4.26 µM
TGI [2]: > 100 µM
GI50 [3]: 2.72 µM
TGI [3]: > 100 µM
GI50 [4]: 6.5 µM
TGI [4]: > 100 µM
GI50 [5]: 2.35 µM
TGI [5]: 6.06 µM
GI50 [6]: 5.52 µM
TGI [6]: > 100 µM
GI50 [7]: 3.86 µM
TGI [7]: > 100 µM
GI50 [8]: 6.01 µM
TGI [8]: > 100 µM
GI50 [9]: 3.93 µM
TGI [9]: > 100 µM
GI50 [10]: 3.75 µM
TGI [10]: 37.5 µM
GI50 [11]: 4.2 µM
TGI [11]: > 100 µM
GI50 [12]: 2.2 µM
TGI [12]: 7.07 µM
GI50 [13]: 4.22 µM
TGI [13]: > 100 µM
GI50 [14]: 6.02 µM
TGI [14]: > 100 µM
GI50 [15]: 3.28 µM
TGI [15]: > 100 µM
GI50 [16]: 2.57 µM
TGI [16]: 9.13 µM
GI50 [17]: 4.41 µM
TGI [17]: > 100 µM
GI50 [18]: 3.46 µM
TGI [18]: > 100 µM
GI50 [19]: 2.31 µM
TGI [19]: 5.37 µM
GI50 [20]: 4.18 µM
TGI [20]: > 100 µM
GI50 [21]: 4.58 µM
TGI [21]: > 100 µM
GI50 [22]: 1.86 µM
TGI [22]: 6.51 µM
GI50 [23]: 4.19 µM
TGI [23]: > 100 µM
GI50 [24]: 4.95 µM
TGI [24]: > 100 µM
GI50 [25]: 7.1 µM
TGI [25]: > 100 µM
GI50 [26]: 2.12 µM
TGI [26]: 5.39 µM
GI50 [27]: 6.27 µM
TGI [27]: > 100 µM
GI50 [28]: 3.38 µM
TGI [28]: 25 µM
GI50 [29]: 4.24 µM
TGI [29]: > 100 µM
GI50 [30]: 13.5 µM
TGI [30]: > 100 µM
GI50 [31]: 1.87 µM
TGI [31]: 6.66 µM
GI50 [32]: 4.44 µM
TGI [32]: > 100 µM
GI50 [33]: 16.5 µM
TGI [33]: > 100 µM
GI50 [34]: 2.72 µM
TGI [34]: > 100 µM
GI50 [35]: 5.2 µM
TGI [35]: > 100 µM
GI50 [36]: 40.6 µM
TGI [36]: > 100 µM
GI50 [37]: 4.07 µM
TGI [37]: > 100 µM
GI50 [38]: 3.26 µM
TGI [38]: 10.9 µM
GI50 [39]: 4.59 µM
TGI [39]: > 100 µM
GI50 [40]: 9.63 µM
TGI [40]: > 100 µM
GI50 [41]: 4.64 µM
TGI [41]: 27.2 µM
GI50 [42]: 4.17 µM
TGI [42]: > 100 µM
GI50 [43]: 4.36 µM
TGI [43]: > 100 µM
GI50 [44]: 4.95 µM
TGI [44]: 42.3 µM
GI50 [45]: 4.2 µM
TGI [45]: > 100 µM
GI50 [46]: 3.69 µM
TGI [46]: > 100 µM
GI50 [47]: 2.6 µM
TGI [47]: 7.91 µM
GI50 [48]: 4.59 µM
TGI [48]: 21.1 µM
GI50 [49]: 3.82 µM
TGI [49]: > 100 µM
GI50 [50]: 1.16 µM
TGI [50]: 2.83 µM
GI50 [51]: 6.84 µM
TGI [51]: > 100 µM
GI50 [52]: 2.49 µM
TGI [52]: 6.43 µM
GI50 [53]: 3.6 µM
TGI [53]: > 100 µM
GI50 [54]: 3.47 µM
TGI [54]: 13.9 µM
GI50 [55]: 3.07 µM
TGI [55]: 16.5 µM
GI50 [56]: 11.7 µM
TGI [56]: 90 µM
